Results: patent US20080112955A1, “METHOD AND COMPOSITION FOR PREVENTING PAIN IN SICKLE CELL PATIENTS” (TRF PHARMA, INC., priority 2002, published 2008)

How the values were obtained:
[1] = tested on: human umbilical vein endothelial cells (HUVECs); assay: static gravity adherence assay with dip rinse: erythrocyte adherence to endothelial monolayers; assay type: cell-based; settings: for percent adherence of nonsickle RBCs to thrombin-treated endothelium with agent / percent adherence of nonsickle RBCs to untreated endothelium with agent / percent adherence of sickle cells to thrombin-treated endothelium with agent / percent adherence of sickle cells to untreated endothelium with agent: mean±SEM, 100% = nonsickle RBCs on untreated HUVECs, mAbs 1:200, sLeX 100 μM, sialidase 0.1 U/mL; for percent adherence of nonsickle RBCs to thrombin-treated endothelium with agent / percent adherence of nonsickle RBCs to untreated endothelium with agent / percent adherence of sickle cells to thrombin-treated endothelium with agent / percent adherence of sickle cells to untreated endothelium with agent / reduction of adherence of nonsickle RBCs to untreated endothelium: sLac 500 μM; for reduction of adherence of nonsickle RBCs to thrombin-treated endothelium / reduction of adherence of nonsickle RBCs to untreated endothelium / reduction of adherence of sickle cells to thrombin-treated endothelium / reduction of adherence of sickle cells to untreated endothelium: static, vs no agent, sialidase 0.1 U/mL on RBCs; for reduction of adherence of nonsickle RBCs to thrombin-treated endothelium / reduction of adherence of sickle cells to thrombin-treated endothelium: HUVECs 0.1 U/mL thrombin 5 min; for reduction of adherence of nonsickle RBCs to thrombin-treated endothelium / reduction of adherence of sickle cells to thrombin-treated endothelium / reduction of adherence of sickle cells to untreated endothelium: mAbs 1:200, sLac 500 μM; for reduction of adherence of nonsickle RBCs to untreated endothelium / reduction of adherence of sickle cells to untreated endothelium: untreated HUVECs; for reduction of adherence of nonsickle RBCs to untreated endothelium: mAbs 1:200 on HUVECs; for reduction of adherence of sickle cells to thrombin-treated endothelium / reduction of adherence of sickle cells to untreated endothelium: sickle RBCs; for reduction of adherence compared with sLac present: 100 μM sLeX
Experimental: Thrombin treatment of human umbilical vein endothelial cells (HUVECs) and the static gravity adherence assay with dip rinse were performed as previously described. When 90% confluent, HUVECs (Clonetics, San Diego, Calif.) were treated with 0.1 U/mL thrombin (Sigma Chemicals, St Louis, Mo.) or medium alone for 5 minutes before assaying erythrocyte adherence. Adherent RBCs were counted microscopically in 8 randomly selected 0.15-mm2 fields for each study condition. The adherence data may be presented as percent adherence where 100% is the mean adherence of nonsickle RBCs to untreated HUVECs.
Because of potential modulatory effects of heparin on adherence, the static adherence assay was used to compare the adhesivity of sickle cells and autologous plasma according to whether they were prepared with citrate anticoagulant or with heparin. […] The contribution of P-selectin to thrombin-enhanced adherence was determined by comparing the effects on adherence of exposing HUVECs to no antibody, a 1:200 dilution of nonblocking P-selectin monoclonal antibodies (mAbs) AC1.2 (BD Pharmingen, San Diego, Calif.), or a 1:200 dilution of blocking P-selectin mAb 9E1 (R & D Systems, Minneapolis, Minn.).
To determine whether sialic acid on erythrocytes is a recognition determinant for P-selectin, prior to testing RBC adherence the erythrocytes were treated with sialidase using a published method. Packed RBCs were mixed with an equal volume of buffer or 0.1 U/mL Vibrio cholerae sialidase (Calbiochem, San Diego).
(§1) For each experiment mean adherence was set arbitrarily at 100% for the control data. The mean adherence of data derived from perturbations of control conditions were calculated as a percentage relative to the control. The average of the means from replicate experiments was then calculated. The uncertainty of the estimate of the means from the data distributed in each set is described as SEM. An SEM of 0% resulted when control data sets were normalized to 100%. We used the paired one-tailed Student test to compare changes in adhesion resulting from different perturbations of the system.

RBCs = assay: hemolysis of sialidase-treated RBCs by colorimetric spectrophotometry; assay type: cell-based, human; settings: 0.1 U/mL sialidase
Experimental: (§2) To determine whether sialic acid on erythrocytes is a recognition determinant for P-selectin, prior to testing RBC adherence the erythrocytes were treated with sialidase using a published method. Packed RBCs were mixed with an equal volume of buffer or 0.1 U/mL Vibrio cholerae sialidase (Calbiochem, San Diego). […] Efficacy of sialidase on RBCs was confirmed by agglutination with peanut extract lectin (Arachis hypogea lectin, Sigma).

P-selectin-Ig chimera = assay: nonstatic rotatory adherence assay: erythrocytes on immobilized P-selectin-Ig chimera; assay type: cell-based, human; settings: for percent adherence of nonsickle cells to P-selectin with agent / percent adherence of sickle cells to P-selectin with agent: mean±SEM, 100% = untreated nonsickle erythrocytes on BSA or Siglec, 5 mM EDTA or sialidase; for reduction of adherence of nonsickle cells to P-selectin / reduction of adherence of sickle cells to P-selectin: 5 mM EDTA present or RBCs pretreated with 0.1 U/mL sialidase
Experimental: (§3) 400 ng bovine serum albumin (BSA; Sigma), a sialic acid-binding lectin (Siglec)-6-Ig chimera, mutated Siglec-7-Ig chimera, or P-selectin-Ig chimera was immobilized on microtiter wells. […] These chimeras were applied to the wells in 10 mM carbonate buffer overnight and then blocked with 0.5% BSA in Hanks buffered salt solution (University of California, San Francisco, Cell Culture Facility) before incubation with RBCs using a published rotatory adhesion assay. Erythrocyte adherence to BSA, Siglec-6, mutant Siglec-7, or P-selectin was measured as the number of RBCs observed in 8 random 0.04-mm2 fields for each condition. The adherence data are presented as percent adherence where 100% is the mean number of untreated nonsickle erythrocytes/field in a well in which BSA or Siglec was immobilized.
as §2, §1

Siglec-6-Ig chimera = assay: nonstatic rotatory adherence assay: erythrocytes on immobilized control Siglec-6-Ig chimera; assay type: cell-based, human; settings: mean±SEM, RBCs pretreated with sialidase
Experimental: as §3
To determine whether sialic acid on erythrocytes is a recognition determinant for P-selectin, prior to testing RBC adherence the erythrocytes were treated with sialidase using a published method. Packed RBCs were mixed with an equal volume of buffer or 0.1 U/mL Vibrio cholerae sialidase (Calbiochem, San Diego). […]
For each experiment mean adherence was set arbitrarily at 100% for the control data. The mean adherence of data derived from perturbations of control conditions were calculated as a percentage relative to the control. The average of the means from replicate experiments was then calculated. […]

[2] = tested on: thrombin-treated HUVECs (endothelial cell P-selectin); assay: parallel plate flow adhesion of sickle erythrocytes to HUVECs; assay type: cell-based, human; settings: n=10
From the text: Blood samples obtained from subjects with sickle cell disease and from healthy control subjects, as approved by the Committee on Human Research at the University of California-San Francisco (UCSF), were drawn into citrate. The buffy coat was removed after the initial centrifugation and after each of 3 subsequent washes of the remaining erythrocytes in phosphate buffered saline (PBS) and one wash in HAH buffer (Hanks balanced salt solution [HBSS; UCSF Cell Culture Facility, San Francisco, Calif.], 1% bovine serum albumin [BSA, Fraction V; Sigma, St Louis, Mo.], 50 mM HEPES [N-2-hydroxyethylpiperazine-N′-2- ethanesulfonic acid; Sigma], pH 7.40). Erythrocytes to be used in flow adhesion studies were suspended to a 0.5% hematocrit. To assess for leukocyte contamination, the erythrocyte preparation was exposed to 10 μg/mL rhodamine 6G, which stains leukocytes but not erythrocytes, and washed 3 times in HAH. No leukocytes were detected in the erythrocyte suspensions prepared using the above protocol. […]
Rolling cells were defined as those sickle cells that were in the same microscopic focal plane as the immobile surface or endothelial monolayer and moving at a distinctly slower velocity than the bulk flow. Those cells determined to be rolling were in contact with the substrata throughout their entire transit through the field of observation, which excludes those cells in brief transient contact with the substrate. Data on rolling adherence are expressed as the mean numbers of rolling red blood cells (cells/mm^2) and the mean rolling velocity of these cells (mm/s) from multiple experiments; error is expressed as SEM. The microscopic field in which adherent cells were measured has an area of 0.15 mm^2 and a volume of 0.038 mm^3. […] The velocity of rolling cells was determined by the time required for a cell to roll across the 0.5-mm field (0.5 mm/s). […] Data on firm adhesion are expressed as the mean numbers of firmly adherent red blood cells in the area described above. Statistical significance was determined using the Student t test. […]

[3] = HUVECs treated with 0.1 U/mL thrombin for 5 minutes vs untreated
[4] = erythrocytes pretreated with 0.02% trypsin, data not shown

| Molecule | percent adherence of nonsickle RBCs to thrombin-treated endothelium with agent [1] | percent adherence of nonsickle RBCs to untreated endothelium with agent [1] | percent adherence of sickle cells to thrombin-treated endothelium with agent [1] | percent adherence of sickle cells to untreated endothelium with agent [1] | reduction of adherence of nonsickle RBCs to thrombin-treated endothelium [1] | reduction of adherence of nonsickle RBCs to untreated endothelium [1] | reduction of adherence of sickle cells to thrombin-treated endothelium [1] | reduction of adherence of sickle cells to untreated endothelium [1] | percent adherence of nonsickle cells to P-selectin with agent (P-selectin-Ig chimera) | percent adherence of sickle cells to P-selectin with agent (P-selectin-Ig chimera) | reduction of adherence of nonsickle cells to P-selectin (P-selectin-Ig chimera) | reduction of adherence of sickle cells to P-selectin (P-selectin-Ig chimera) | also measured |
| --- | --- | --- | --- | --- | --- | --- | --- | --- | --- | --- | --- | --- | --- |
| CC(=O)N[C@H]1[C@H]([C@H](O)[C@H](O)CO)O[C@@](O[C@H]2[C@@H](O)[C@@H](CO)O[C@@H](O[C@H]3[C@H](O)[C@@H](O)C(O)O[C@@H]3CO)[C@@H]2O)(C(=O)O)C[C@@H]1O (stereo partly shown) [sLac, 3′-sialyl-lactose] | 162%±28% | 105%±15% | 304%±74% | 144%±44% | Neither did sLac reduce significantly | not reduced significantly | Neither did sLac reduce significantly | not reduced significantly |  |  |  |  |  |
| sialidase: Vibrio cholerae sialidase (Calbiochem) used to treat RBCs | 68%±15% | 53%±13% | 282%±133% | 191%±67% | 81% | 47% | 63% | 36% | 88%±11% | 182%+17% | no significant effect | 33% | hemolysis (RBCs): No hemolysis was detected; percent adherence of nonsickle cells to Siglec-6 after sialidase (Siglec-6-Ig chimera; nonsickle cells): 79%±13%; percent adherence of sickle cells to Siglec-6 after sialidase (Siglec-6-Ig chimera; sickle cells): 157%±18% |
| O=C(O)CN(CCN(CC(=O)O)CC(=O)O)CC(=O)O [EDTA] |  |  |  |  |  |  |  |  | 95%±11% | 177%±18% | 35% | 32% |  |
| CC(=O)NC1C(O)CC(OC2C(O)C(CO)OC(OC3C(CO)OC(O)C(NC(C)=O)C3OC3OC(C)C(O)C(O)C3O)C2O)(C(=O)O)OC1C(O)C(O)CO (stereo not shown) [sLeX, sialyl Lewis X (sLeX) tetrasaccharide] | 82%±41% | 55%±12% | 196%±38% | 91±8% |  |  |  |  |  |  |  |  | reduction of adherence compared with sLac present ([1]; nonsickle cells, thrombin-treated endothelial cells): 49%; reduction of adherence compared with sLac present ([1]; nonsickle cells, untreated endothelial cells, not significant): ~48%; reduction of adherence compared with sLac present ([1]; sickle cells, thrombin-treated endothelial cells): 36%; reduction of adherence compared with sLac present ([1]; sickle cells, untreated endothelial cells, not significant): ~37% |
| thrombin |  |  |  |  |  |  |  |  |  |  |  |  | decrease in rolling velocities of sickle cells [2, 3]: 26%; increase in number of rolling sickle cells [2, 3]: 54%; increase in number of firmly adhered sickle cells ([2]; thrombin treatment of HUVECs vs untreated): 130% |
| trypsin: protease used at 0.02% to pretreat erythrocytes (protein, UniProt P00760 24-246, looked up) Serine protease 1: IVGGYTCGANTVPYQVSLNSGYHFCGGSLINSQWVVSAAHCYKSGIQVRLGEDNINVVEGNEQFISASKSIVHPSYNSNTLNNDIMLIKLKSAASLNSRVASISLPTSCASAGTQCLISGWGNTKSSGTSYPDVLKCLKAPILSDSSCKSAYPGQITSNMFCAGYLEGGKDSCQGDSGGPVVCSGKLQGIVSWGSGCAQKNKPGVYTKVCNYVSWIKQTIASN |  |  |  |  |  |  |  |  |  |  |  |  | adherence of sickle and nonsickle cells to untreated and thrombin-treated endothelial cells [1, 4]: reduced substantially; adhesion of sickle and nonsickle cells to immobilized P-selectin (P-selectin-Ig chimera; [4]): did not reduce significantly |
